Results: US5234907A, “Synthetic vasoactive intestinal peptide analogs” (Hoffmann-La Roche Inc., priority 1991, dated 1993)
[ ]: non-standard residue; d: D form. Phe(4-NH2) = Nc1ccc(C[C@H](N)C(=O)O)cc1; NMeA = CN[C@@H](C)C(=O)O; Nle = CCCC[C@H](N)C(=O)O

Key:
[1] = test system: guinea pig tracheal smooth muscle; assay: Tracheal relaxant activity of VIP analogs on isolated guinea pig tracheal rings; assay type: cell-based; details: cumulative concentration response; responses as % of maximum response to VIP (10^-6 M=100%); at least three tissues pooled; linear regression
Protocol: The relaxant activity of the VIP analogs was studied in a model utilizing guinea pig trachea. [Wasserman, M. A. et al., in Vasoactive Intestinal Peptide, S. I. Said, ed., Raven Press, N.Y. 1982, pp 177-184]; All tissues were taken from male albino guinea pig weighing 400-600 g, anesthesized with urethane (2 g/kg, i.p.). After exanguination, the trachea were removed and divided into four ring segments (3 mm length). Each ring was suspended by 30 gauge stainless steel wires in a 10 mL jacketed tissue bath and attached via 4-0 silk thread to a Grass force displacement transducer (model FT03C, Grass Instruments Co., Quincy, Ma), for isometric recording of tension. The smooth muscle was bathed in modified Krebs solution of the following composition: NaCl, 120 mM; KCl, 4.7 mM; CaCl2, 2.5 mM; MgSO.4 7H2 O, 1.2 mM; NaHCO3, 25 mM; K2 HPO4 monobasic, 1.2 mM; and dextrose, 10 mM. Tissue baths were maintained at 37° C. and constantly bubbled with 95% O2 and 5% CO2. Responses were recorded on an 8 channel and a 4 channel Hewlett-Packard (model 7702B and 7754A, respectively) recorder (Hewlett-Packard, Paramus, N.J.). […] Frequent readjustments of tension were required during the 60 minute stabilization period which followed. Tissues were rinsed at 15 minute intervals.
Cumulative concentration response curves were obtained for each tissue by successive […] increases in the bath concentration of VIP or VIP analogs according to the method of VanRossum [Arch. Int. Pharmacodyn., 143, 299-330 (1963)]. Only one cumulative dose response curve was obtained on a single tissue. To minimize variability between tissues, relaxant responses were expressed as a percentage of the maximum response obtained to VIP (10^-6 M=100%) added at the end of each concentration response experiment. Responses obtained from at least three tissues were pooled and EC50 values were determined by linear regression.

guinea pigs = assay: In vivo bronchodilator activity by tracheal instillation against histamine-induced bronchoconstriction; parameters: species or system guinea pig; details: 100 μl, anesthetized male Hartley guinea pigs, histamine challenge 50 μg/kg i.v., inhibition of tracheal pressure increase
Protocol: The in vivo bronchodilator activity of VIP analogs in guinea pigs was assessed by the tracheal instillation route of administration. This technique utilized male guinea pigs (Hartley strain, Charles River) weighing 400-600 g. Animals were anesthetized with urethane (2 g/kg) intraperitoneally and a polyethylene cannula was inserted into the jugular vein for intravenous drug administration.
The animals were tracheotomized and dosing solutions of distilled water or test compound dissolved in distilled water were administered into the trachea, approximately three-quarter the distance to the carina with a pipette. The concentration of the dosing solution was adjusted to deliver a constant volume of 100 μl. The animals were placed supine for one minute to aid drug delivery to the lung. One minute later, spontaneous breathing was arrested with succinylcholine chloride (1.2 mg/kg) administered intravenously, and the animals were ventilized with a Harvard Model 680 small animal respirator set at 40 breaths/min and 4.0 cm^3 stoke volume. The animals were challenged with a maximal constrictory dose of histamine (50 μg/kg, i.v.) and tracheal pressure (cm of water) was recorded from a Statham pressure transducer (P 32 AA).
The change in tracheal pressure was averaged for at least 3 control and 3 drug-treated animals and percent inhibition was calculated. The relative potency of compounds administered by the instillation route was determined by administering various doses of test compound and calculating the median inhibitory dose (ID50 value). The ID50 was determined from log dose-reasons curves generated by at least 3 doses that caused inhibitory effects between 10% and 90%. The correlation coefficient for the regression line of each antagonist was always greater than 0.95.
For determination of the time course of inhibition for various compounds, the time between administration of compound and challenge with histamine was varied. The time course of activity was calculated as the time when inhibition decreased to 40%.

With “Ac--[Glu^8, Lys^12, Nle^17, Ala^25, Leu^26, Lys^27,28, Gly^29,30, Thr^31 ]--VIP (Ac-HSDAVFTENYTKLRKQ[Nle]AVKKYLNALKKGGT-NH2; SMILES CCCC[C@H](NC(=O)[C@H](CCC(N)=O)NC(=O)[C@H](CCCCN)NC(=O)[C@H](CCCNC(=N)N)NC(=O)[C@H](CC(C)C)NC(=O)[C@H](CCCCN)NC(=O)[C@@H](NC(=O)[C@H](Cc1ccc(O)cc1)NC(=O)[C@H](CC(N)=O)NC(=O)[C@H](CCC(=O)O)NC(=O)[C@@H](NC(=O)[C@H](Cc1ccccc1)NC(=O)[C@@H](NC(=O)[C@H](C)NC(=O)[C@H](CC(=O)O)NC(=O)[C@H](CO)NC(=O)[C@H](Cc1c[nH]cn1)NC(C)=O)C(C)C)[C@@H](C)O)[C@@H](C)O)C(=O)N[C@@H](C)C(=O)N[C@H](C(=O)N[C@@H](CCCCN)C(=O)N[C@@H](CCCCN)C(=O)N[C@@H](Cc1ccc(O)cc1)C(=O)N[C@@H](CC(C)C)C(=O)N[C@@H](CC(N)=O)C(=O)N[C@@H](C)C(=O)N[C@@H](CC(C)C)C(=O)N[C@@H](CCCCN)C(=O)N[C@@H](CCCCN)C(=O)NCC(=O)NCC(=O)N[C@H](C(N)=O)[C@@H](C)O)C(C)C) [Ac--(SEQ ID NO: 16)--NH2]” the EC50 [1] was 0.27 nM and the “Bronchodilator activity in guinea pigs, ED50” value (from here on “Bronchodilator activity”) (guinea pigs) was 0.043 µg.
For “Ac--[Ala^2, Glu^8, Lys^12, Nle^17, Ala^19, Val^26, Thr^28, Ala^29-31 ]--VIP (Ac-HADAVFTENYTKLRKQ[Nle]AAKKYLNSVLTAAA-NH2; SMILES CCCC[C@H](NC(=O)[C@H](CCC(N)=O)NC(=O)[C@H](CCCCN)NC(=O)[C@H](CCCNC(=N)N)NC(=O)[C@H](CC(C)C)NC(=O)[C@H](CCCCN)NC(=O)[C@@H](NC(=O)[C@H](Cc1ccc(O)cc1)NC(=O)[C@H](CC(N)=O)NC(=O)[C@H](CCC(=O)O)NC(=O)[C@@H](NC(=O)[C@H](Cc1ccccc1)NC(=O)[C@@H](NC(=O)[C@H](C)NC(=O)[C@H](CC(=O)O)NC(=O)[C@H](C)NC(=O)[C@H](Cc1c[nH]cn1)NC(C)=O)C(C)C)[C@@H](C)O)[C@@H](C)O)C(=O)N[C@@H](C)C(=O)N[C@@H](C)C(=O)N[C@@H](CCCCN)C(=O)N[C@@H](CCCCN)C(=O)N[C@@H](Cc1ccc(O)cc1)C(=O)N[C@@H](CC(C)C)C(=O)N[C@@H](CC(N)=O)C(=O)N[C@@H](CO)C(=O)N[C@H](C(=O)N[C@@H](CC(C)C)C(=O)N[C@H](C(=O)N[C@@H](C)C(=O)N[C@@H](C)C(=O)N[C@@H](C)C(N)=O)[C@@H](C)O)C(C)C) [Ac--(SEQ ID NO: 19)--NH2]”, the EC50 [1] was 0.23 nM and the “Bronchodilator activity” value (guinea pigs) was 0.47 µg.
For “Ac--[N--Me--Ala^1, Lys^12, Nle^17, Val^26, Thr^28 ]--VIP (Ac-[NMeA]SDAVFTDNYTKLRKQ[Nle]AVKKYLNSVLT-NH2; SMILES CCCC[C@H](NC(=O)[C@H](CCC(N)=O)NC(=O)[C@H](CCCCN)NC(=O)[C@H](CCCNC(=N)N)NC(=O)[C@H](CC(C)C)NC(=O)[C@H](CCCCN)NC(=O)[C@@H](NC(=O)[C@H](Cc1ccc(O)cc1)NC(=O)[C@H](CC(N)=O)NC(=O)[C@H](CC(=O)O)NC(=O)[C@@H](NC(=O)[C@H](Cc1ccccc1)NC(=O)[C@@H](NC(=O)[C@H](C)NC(=O)[C@H](CC(=O)O)NC(=O)[C@H](CO)NC(=O)[C@H](C)N(C)C(C)=O)C(C)C)[C@@H](C)O)[C@@H](C)O)C(=O)N[C@@H](C)C(=O)N[C@H](C(=O)N[C@@H](CCCCN)C(=O)N[C@@H](CCCCN)C(=O)N[C@@H](Cc1ccc(O)cc1)C(=O)N[C@@H](CC(C)C)C(=O)N[C@@H](CC(N)=O)C(=O)N[C@@H](CO)C(=O)N[C@H](C(=O)N[C@@H](CC(C)C)C(=O)N[C@H](C(N)=O)[C@@H](C)O)C(C)C)C(C)C) [Ac--(SEQ ID NO: 88)--NH2]”, the EC50 [1] was 7.2 nM and the “Bronchodilator activity” value (guinea pigs) was 8.5 µg.
For “Ac--[p-NH2 --Phe^10, Lys^12, Nle^17, Val^26, Thr^28 ]--VIP (Ac-HSDAVFTDN[Phe(4-NH2)]TKLRKQ[Nle]AVKKYLNSVLT-NH2; SMILES CCCC[C@H](NC(=O)[C@H](CCC(N)=O)NC(=O)[C@H](CCCCN)NC(=O)[C@H](CCCNC(=N)N)NC(=O)[C@H](CC(C)C)NC(=O)[C@H](CCCCN)NC(=O)[C@@H](NC(=O)[C@H](Cc1ccc(N)cc1)NC(=O)[C@H](CC(N)=O)NC(=O)[C@H](CC(=O)O)NC(=O)[C@@H](NC(=O)[C@H](Cc1ccccc1)NC(=O)[C@@H](NC(=O)[C@H](C)NC(=O)[C@H](CC(=O)O)NC(=O)[C@H](CO)NC(=O)[C@H](Cc1c[nH]cn1)NC(C)=O)C(C)C)[C@@H](C)O)[C@@H](C)O)C(=O)N[C@@H](C)C(=O)N[C@H](C(=O)N[C@@H](CCCCN)C(=O)N[C@@H](CCCCN)C(=O)N[C@@H](Cc1ccc(O)cc1)C(=O)N[C@@H](CC(C)C)C(=O)N[C@@H](CC(N)=O)C(=O)N[C@@H](CO)C(=O)N[C@H](C(=O)N[C@@H](CC(C)C)C(=O)N[C@H](C(N)=O)[C@@H](C)O)C(C)C)C(C)C) [Ac--(SEQ ID NO: 54)--NH2]”, the EC50 [1] was 0.36 nM and the “Bronchodilator activity” value (guinea pigs) was 2.0 µg.
For “Ac--[Lys^12, Nle^17, Ala^19, Val^26, Thr^28, Gly^29, Lys^30 ]--VIP (Ac-HSDAVFTDNYTKLRKQ[Nle]AAKKYLNSVLTGK-NH2; SMILES CCCC[C@H](NC(=O)[C@H](CCC(N)=O)NC(=O)[C@H](CCCCN)NC(=O)[C@H](CCCNC(=N)N)NC(=O)[C@H](CC(C)C)NC(=O)[C@H](CCCCN)NC(=O)[C@@H](NC(=O)[C@H](Cc1ccc(O)cc1)NC(=O)[C@H](CC(N)=O)NC(=O)[C@H](CC(=O)O)NC(=O)[C@@H](NC(=O)[C@H](Cc1ccccc1)NC(=O)[C@@H](NC(=O)[C@H](C)NC(=O)[C@H](CC(=O)O)NC(=O)[C@H](CO)NC(=O)[C@H](Cc1c[nH]cn1)NC(C)=O)C(C)C)[C@@H](C)O)[C@@H](C)O)C(=O)N[C@@H](C)C(=O)N[C@@H](C)C(=O)N[C@@H](CCCCN)C(=O)N[C@@H](CCCCN)C(=O)N[C@@H](Cc1ccc(O)cc1)C(=O)N[C@@H](CC(C)C)C(=O)N[C@@H](CC(N)=O)C(=O)N[C@@H](CO)C(=O)N[C@H](C(=O)N[C@@H](CC(C)C)C(=O)N[C@H](C(=O)NCC(=O)N[C@@H](CCCCN)C(N)=O)[C@@H](C)O)C(C)C) [Ac--(SEQ ID NO: 11)--NH2]”, the EC50 [1] was 0.58 nM and the “Bronchodilator activity” value (guinea pigs) was 0.58 µg.
“Ac--[Glu^8, Lys^12, Nle^17, Ala^19, Val^26, Thr^28, Gly^29,30, Thr^31 ]--VIP (Ac-HSDAVFTENYTKLRKQ[Nle]AAKKYLNSVLTGGT-NH2; SMILES CCCC[C@H](NC(=O)[C@H](CCC(N)=O)NC(=O)[C@H](CCCCN)NC(=O)[C@H](CCCNC(=N)N)NC(=O)[C@H](CC(C)C)NC(=O)[C@H](CCCCN)NC(=O)[C@@H](NC(=O)[C@H](Cc1ccc(O)cc1)NC(=O)[C@H](CC(N)=O)NC(=O)[C@H](CCC(=O)O)NC(=O)[C@@H](NC(=O)[C@H](Cc1ccccc1)NC(=O)[C@@H](NC(=O)[C@H](C)NC(=O)[C@H](CC(=O)O)NC(=O)[C@H](CO)NC(=O)[C@H](Cc1c[nH]cn1)NC(C)=O)C(C)C)[C@@H](C)O)[C@@H](C)O)C(=O)N[C@@H](C)C(=O)N[C@@H](C)C(=O)N[C@@H](CCCCN)C(=O)N[C@@H](CCCCN)C(=O)N[C@@H](Cc1ccc(O)cc1)C(=O)N[C@@H](CC(C)C)C(=O)N[C@@H](CC(N)=O)C(=O)N[C@@H](CO)C(=O)N[C@H](C(=O)N[C@@H](CC(C)C)C(=O)N[C@H](C(=O)NCC(=O)NCC(=O)N[C@H](C(N)=O)[C@@H](C)O)[C@@H](C)O)C(C)C) [Ac--(SEQ ID NO: 15)--NH2]” was tested, and the EC50 [1] was 0.55 nM and the “Bronchodilator activity” value (guinea pigs) was 0.064 µg.
